Source: US20150164855A1, “KETONE BODIES AND KETONE BODY ESTERS FOR MAINTAINING OR IMPROVING MUSCLE POWER OUTPUT” (priority 2012, published 2015)

Legend:
Format in all cases: in vivo
[1] = Blood (R)-3-hydroxybutyrate concentration in rats following administration of ketones; details: for Peak Blood (R)-3-hydroxybutyrate: rats fed sour cream mix containing 2 g ketone in 10 ml water, blood before feeding and after 1, 3 and 6 hours
Description: Experiments were carried out to determine the concentration of blood (R)-3-hydroxybutyrate in rats following administration of various ketones. The ketones tested are set out in Table 4 below. The ketones were tasted in the same manner as Ketones 1 to 8 above.
(§1) Rats were each fed with a sour cream mix containing 2 g of a ketone as set out in […] in 10 ml water. Samples of blood from each rat were taken immediately prior to feeding, after 1 hour, 3 hours and 6 hours to determine the blood concentration of (R)-3-hydroxybutyrate. Two controls (Control A and Control B) were also tested by feeding with the same mix without the ketone added. The rats were humanely killed and dissected for visual inspection to determine whether pyloric constriction or other visible changes had occurred.
Blood was extracted and 0.1 ml of whole blood was added to 0.4 ml 3.6% perchloric acid subjected to vortex and then allowed to rest in ice for 30 minutes and then spun. 350 ul of acidic supernatant were then transferred to a new tube and 5 ul phenol red (0.05%), 20 ul 1 M Imidazole pH 7 and 3 M KHCO3 was added to neutralize the solution which was allowed to stand in ice for 30 minutes and then spun. A sample of the neutralized blood extract was then assayed for (R)-3-hydroxybutyrate.

[2] = Visual inspection of dissected rats for pyloric constriction or other visible changes; details: rats fed 2 g ketone, killed and dissected for visual inspection
Description: as §1, with “Samples of blood from each rat were taken immediately prior to feeding, after 1 hour, 3 hours and 6 hours to determine the blood concentration of (R)-3-hydroxybutyrate.” left out

[3] = Uptake of oligomeric ketones into the blood (Example 2)
Description: Procedures were carried out to determine the uptake of oligomeric ketones into the blood.

[4] = Single oral dose/response of blood (R)-3-hydroxybutyrate (Example 5); details: 192, 291, 395 and 573 mg/kg single dose
Description: (R)-3-hydroxybutyrate-R-1,3-butanediol monoester was administered in a single dose based on a fixed amount per kg of body weight of the subject to a number of subjects. The blood (R)-3-hydroxybutyrate concentration was determined over a period of time to determine the dose/response relationship between the oral single dose and the blood concentration of (R)-3-hydroxybutyrate. The procedure was repeated with different quantities of (R)-3-hydroxybutyrate-R-1,3-butanediol monoester to provide data on the dose/response relationship for (R)-3-hydroxybutyrate-R-1,3-butanediol monoester when administered at 192 mg/kg, 291 mg/kg, 395 mg/kg and 573 mg/kg.

Compound | Peak Blood (R)-3-hydroxybutyrate [1] | level of uptake to the blood relative to the triolide diester oligomer (Ketone 10) ([1]; rats, 2 g ketone) | Symptoms [2] | blood level of (R)-3-hydroxybutyrate (peak) [3] | blood (R)-3-hydroxybutyrate concentration after single oral dose [4] | level of uptake to the blood relative to the linear/other oligomers tested (Ketones 9, 11 and 12) ([1]; rats, 2 g ketone)
(R)-3-hydroxybutyrate-(R)-1,3-butanediol [Ketone 8] | 6 mM | around 4 times | No pyloric constriction, no gas | 6000 µM | levels not previously reported with other ketones | 
CC(O)CC(=O)OC(C)CC(=O)OC(C)CC(=O)OCC[C@@H](C)OC(=O)CC(C)OC(=O)CC(C)OC(=O)CC(C)O (stereo partly drawn) [Ketone 10, (R)-1,3-butanediol ditriolide ester] | about 1.5 mM |  |  | about 1.5 mM |  | around 10 times
